Test results as given in ChEMBL document CHEMBL6083262, “Stereorandomized Oncocins with Preserved Ribosome Binding and Antibacterial Activity” (J Med Chem, 2024).
Converted amounts (≈) assume the structure as drawn. The source made the active and inactive calls. The rule behind the calls is not given here. Positions of bridges follow the written chain, without caps; N, C: chain ends. Non-standard residues stand in square brackets, D forms with d. Residues, ends and D or L forms follow the SMILES beside them. ξ: configuration not given here. *: point of attachment. ξY = NC(Cc1ccc(O)cc1)C(=O)O; X1 = CC[C@H](C)CCCCC(=O)*; ξR = N=C(N)NCCCC(N)C(=O)O; Dab = NCC[C@H](N)C(=O)O; ξN = NC(=O)CC(N)C(=O)O; ξI = CCC(C)C(N)C(=O)O

Key:
Pseudomonas aeruginosa [1] = assay: Antibacterial activity against multidrug-resistant Pseudomonas aeruginosa clinical isolate ZEM9A incubated for 16 to 20 hrs in full muller hinton medium by broth microdilution method; type: functional; settings: time 16-20 hrs
Staphylococcus aureus [2] = assay: Antimicrobial activity against methicillin-resistant Staphylococcus aureus COL incubated for 16 to 20 hrs in 12.5 % muller hinton medium by broth microdilution method; type: functional; settings: time 16-20 hrs
Lipid bilayer [3] = assay: Induction of membrane disruption in egg yolk phosphatidyl choline at 10 ug/ml by measuring vesicle leakage; settings: dose 10.0 µg/ml
Pseudomonas aeruginosa [4] = assay: Antimicrobial activity against Pseudomonas aeruginosa PAO1 incubated for 16 to 20 hrs in 12.5 % muller hinton medium by broth microdilution method; type: functional; settings: time 16-20 hrs
Klebsiella pneumoniae [5] = assay: Bacteriostatic activity against Klebsiella pneumoniae assessed as detachment of inner membrane from outer membrane by measuring a large void at 8 times MIC in full muller hinton medium by transmission electron microscopic analysis; type: functional, organism-based
Enterobacter cloacae [6] = assay: Antibacterial activity against multidrug-resistant Enterobacter cloacae incubated for 16 to 20 hrs in 12.5 % muller hinton medium by broth microdilution method; type: functional; settings: time 16-20 hrs
rRNA = assay: Binding affinity to [gamma32 P-ATP] labeled Escherichia coli MG1655 23S ribosomal RNA (5-CCCTTGGGACCTACTTC-3') at U2506 position assessed as increase in band intensity at 1 uM incubated for 2.5 hrs in full muller hinton medium by CMCT based gel electrophoresis; type: nucleic-acid assay
Pseudomonas aeruginosa [7] = assay: Antibacterial activity against multidrug-resistant Pseudomonas aeruginosa PA14 2P4 harboring pmrB mutant incubated for 16 to 20 hrs in full muller hinton medium by broth microdilution method; type: functional; settings: time 16-20 hrs
Escherichia coli [8] = assay: Bacteriostatic activity against Escherichia coli assessed as small intracellular vesicles at 8 times MIC in full muller hinton medium by transmission electron microscopic analysis; type: functional, organism-based
[9] = Hemolytic activity in human RBC incubated for 4 hrs; type: toxicity, cell-based; settings: erythrocyte
Klebsiella pneumoniae [10] = assay: Bacteriostatic activity against Klebsiella pneumoniae at 8 times MIC in full muller hinton medium by Time-kill assay; type: functional, organism-based
Lipid bilayer [11] = assay: Induction of membrane disruption in egg yolk phosphatidyl glycerol at 10 ug/ml by measuring vesicle leakage; settings: dose 10.0 µg/ml
Klebsiella pneumoniae [12] = assay: Bacteriostatic activity against Klebsiella pneumoniae assessed as membrane perturbation at 8 times MIC in full muller hinton medium by transmission electron microscopic analysis; type: functional, organism-based
Escherichia coli [13] = assay: Antimicrobial activity against Escherichia coli W3110 incubated for 16 to 20 hrs in full muller hinton medium by broth microdilution method; type: functional; settings: time 16-20 hrs
Escherichia coli [14] = assay: Bacteriostatic activity against Escherichia coli at 8 times MIC in full muller hinton medium by Time-kill assay; type: functional, organism-based
Escherichia coli [15] = assay: Bacteriostatic activity against Escherichia coli assessed as detachment of inner membrane from outer membrane by measuring a large void at 8 times MIC in full muller hinton medium by transmission electron microscopic analysis; type: functional, organism-based
Staphylococcus aureus [16] = assay: Antimicrobial activity against methicillin-resistant Staphylococcus aureus COL incubated for 16 to 20 hrs in full muller hinton medium by broth microdilution method; type: functional; settings: time 16-20 hrs
Klebsiella pneumoniae [17] = assay: Bacteriostatic activity against Klebsiella pneumoniae assessed as small intracellular vesicles at 8 times MIC in full muller hinton medium by transmission electron microscopic analysis; type: functional, organism-based
Pseudomonas aeruginosa [18] = assay: Antibacterial activity against multidrug-resistant Pseudomonas aeruginosa PA14 incubated for 16 to 20 hrs in full muller hinton medium by broth microdilution method; type: functional; settings: time 16-20 hrs
Escherichia coli [19] = assay: Bacteriostatic activity against Escherichia coli assessed as membrane perturbation at 8 times MIC in full muller hinton medium by transmission electron microscopic analysis; type: functional, organism-based
Pseudomonas aeruginosa [20] = assay: Antimicrobial activity against Pseudomonas aeruginosa PAO1 incubated for 16 to 20 hrs in full muller hinton medium by broth microdilution method; type: functional; settings: time 16-20 hrs
Klebsiella pneumoniae [21] = assay: Antimicrobial activity against Klebsiella pneumoniae NCTC 418 incubated for 16 to 20 hrs in full muller hinton medium by broth microdilution method; type: functional; settings: time 16-20 hrs
Klebsiella pneumoniae [22] = assay: Antimicrobial activity against Klebsiella pneumoniae NCTC 418 incubated for 16 to 20 hrs in 12.5 % muller hinton medium by broth microdilution method; type: functional; settings: time 16-20 hrs
Bacteria = assay: Binding affinity to his-tagged DnaK (unknown origin) expressed in Escherichia coli BL21 (DE3) in dilute muller hinton medium by microscale thermophoresis analysis
Klebsiella pneumoniae [23] = assay: Antibacterial activity against multidrug-resistant Klebsiella pneumoniae clinical isolate OXA-48 incubated for 16 to 20 hrs in 12.5 % muller hinton medium by broth microdilution method; type: functional; settings: time 16-20 hrs
Pseudomonas aeruginosa [24] = assay: Antibacterial activity against multidrug-resistant Pseudomonas aeruginosa clinical isolate ZEM-1A incubated for 16 to 20 hrs in full muller hinton medium by broth microdilution method; type: functional; settings: time 16-20 hrs
Enterobacter cloacae [25] = assay: Antibacterial activity against multidrug-resistant Enterobacter cloacae incubated for 16 to 20 hrs in full muller hinton medium by broth microdilution method; type: functional; settings: time 16-20 hrs
Klebsiella pneumoniae [26] = assay: Antibacterial activity against multidrug-resistant Klebsiella pneumoniae clinical isolate OXA-48 incubated for 16 to 20 hrs in full muller hinton medium by broth microdilution method; type: functional; settings: time 16-20 hrs
Pseudomonas aeruginosa [27] = assay: Antibacterial activity against multidrug-resistant Pseudomonas aeruginosa PA14 4.18 harboring pmrB mutant incubated for 16 to 20 hrs in full muller hinton medium by broth microdilution method; type: functional; settings: time 16-20 hrs
Pseudomonas aeruginosa [28] = assay: Antibacterial activity against multidrug-resistant Pseudomonas aeruginosa PA14 4.13 harboring phoQ mutant incubated for 16 to 20 hrs in full muller hinton medium by broth microdilution method; type: functional; settings: time 16-20 hrs
Pseudomonas aeruginosa [29] = assay: Antibacterial activity against multidrug-resistant Pseudomonas aeruginosa PA14 4.13 harboring phoQ mutant incubated for 16 to 20 hrs in 12.5 % muller hinton medium by broth microdilution method; type: functional; settings: time 16-20 hrs
Escherichia coli [30] = assay: Antimicrobial activity against Escherichia coli W3110 incubated for 16 to 20 hrs in 12.5 % muller hinton medium by broth microdilution method; type: functional; settings: time 16-20 hrs
Pseudomonas aeruginosa [31] = assay: Antibacterial activity against multidrug-resistant Pseudomonas aeruginosa clinical isolate ZEM9A incubated for 16 to 20 hrs in 12.5 % muller hinton medium by broth microdilution method; type: functional; settings: time 16-20 hrs
Pseudomonas aeruginosa [32] = assay: Antibacterial activity against multidrug-resistant Pseudomonas aeruginosa PA14 2P4 harboring pmrB mutant incubated for 16 to 20 hrs in 12.5 % muller hinton medium by broth microdilution method; type: functional; settings: time 16-20 hrs
Acinetobacter baumannii [33] = assay: Antimicrobial activity against Acinetobacter baumannii ATCC 19606 incubated for 16 to 20 hrs in 12.5 % muller hinton medium by broth microdilution method; type: functional; settings: time 16-20 hrs
Acinetobacter baumannii [34] = assay: Antimicrobial activity against Acinetobacter baumannii ATCC 19606 incubated for 16 to 20 hrs in full muller hinton medium by broth microdilution method; type: functional; settings: time 16-20 hrs
Pseudomonas aeruginosa [35] = assay: Antibacterial activity against multidrug-resistant Pseudomonas aeruginosa PA14 incubated for 16 to 20 hrs in 12.5 % muller hinton medium by broth microdilution method; type: functional; settings: time 16-20 hrs
Pseudomonas aeruginosa [36] = assay: Antibacterial activity against multidrug-resistant Pseudomonas aeruginosa clinical isolate ZEM-1A incubated for 16 to 20 hrs in 12.5 % muller hinton medium by broth microdilution method; type: functional; settings: time 16-20 hrs
Pseudomonas aeruginosa [37] = assay: Antibacterial activity against multidrug-resistant Pseudomonas aeruginosa PA14 4.18 harboring pmrB mutant incubated for 16 to 20 hrs in 12.5 % muller hinton medium by broth microdilution method; type: functional; settings: time 16-20 hrs

CCC(C)C(NC(=O)C(CCCNC(=N)N)NC(=O)[C@H](CCCNC(=N)N)NC(=O)[C@@H]1CCCN1C(=O)[C@@H]1CCCN1C(=O)[C@H](CCCNC(=N)N)NC(=O)[C@@H]1CCCN1C(=O)[C@H](CCCNC(=N)N)NC(=O)[C@@H]1CCCN1C(=O)[C@H](CC(C)C)NC(=O)[C@H](Cc1ccc(O)cc1)NC(=O)[C@@H]1CCCN1C(=O)[C@@H]1CCCN1C(=O)[C@H](CCCCN)NC(=O)[C@H](CC(=O)O)NC(=O)[C@@H](N)C(C)C)C(=O)NC(Cc1ccc(O)cc1)C(=O)NC(CC(N)=O)C(=O)NC(CCCNC(=N)N)C(N)=O (stereo not given in full) (H-VDKPPYLPRPRPPR[ξR][ξI][ξY][ξN][ξR]-NH2)
MIC (Pseudomonas aeruginosa [1]): > 64 µg/mL
MIC (Staphylococcus aureus [2]): > 16 µg/mL
Activity (Lipid bilayer [3]): Active
MIC (Pseudomonas aeruginosa [4]): 8 µg/mL (≈ 3.35 µM)
Activity (Klebsiella pneumoniae [5]): Active
MIC (Enterobacter cloacae [6]): 1 µg/mL (≈ 0.418 µM)
Activity (rRNA): Active
MIC (Pseudomonas aeruginosa [7]): > 64 µg/mL
Activity (Escherichia coli [8]): Active
MHC [9]: > 1000 µg/mL
Activity (Klebsiella pneumoniae [10]): Active
Activity (Lipid bilayer [11]): Active
Activity (Klebsiella pneumoniae [12]): Active; Few Membrane Perturbation Observed
MIC (Escherichia coli [13]): 4 µg/mL (≈ 1.67 µM)
Activity (Escherichia coli [14]): Active
Activity (Escherichia coli [15]): Active
MIC (Staphylococcus aureus [16]): > 64 µg/mL
Activity (Klebsiella pneumoniae [17]): Active
MIC (Pseudomonas aeruginosa [18]): > 64 µg/mL
Activity (Escherichia coli [19]): Active; Few Membrane Perturbation Observed

CCC(C)C(NC(=O)C(CCCNC(=N)N)NC(=O)C(CCCNC(=N)N)NC(=O)C1CCCN1C(=O)C1CCCN1C(=O)C(CCCNC(=N)N)NC(=O)C1CCCN1C(=O)C(CCCNC(=N)N)NC(=O)C1CCCN1C(=O)C(CC(C)C)NC(=O)C(Cc1ccc(O)cc1)NC(=O)C1CCCN1C(=O)C1CCCN1C(=O)C(CCCCN)NC(=O)C(CC(=O)O)NC(=O)C(N)C(C)C)C(=O)NC(Cc1ccc(O)cc1)C(=O)NC(CC(N)=O)C(=O)NC(CCCNC(=N)N)C(N)=O (stereo not given) (H-VDKPPYLPRPRPPRRIYNR-NH2; configuration not given here)
MIC (Pseudomonas aeruginosa [20]): > 64 µg/mL
MIC (Pseudomonas aeruginosa [1]): > 64 µg/mL
MIC (Klebsiella pneumoniae [21]): > 64 µg/mL
MIC (Staphylococcus aureus [2]): > 64 µg/mL
Activity (Lipid bilayer [3]): Active
MIC (Klebsiella pneumoniae [22]): > 16 µg/mL
Activity (Bacteria): inactive
Activity (rRNA): inactive
MIC (Klebsiella pneumoniae [23]): > 64 µg/mL
MIC (Pseudomonas aeruginosa [7]): > 64 µg/mL
MHC [9]: > 1000 µg/mL
MIC (Pseudomonas aeruginosa [24]): > 64 µg/mL
MIC (Enterobacter cloacae [25]): > 64 µg/mL
Activity (Lipid bilayer [11]): Active
MIC (Klebsiella pneumoniae [26]): > 64 µg/mL
MIC (Pseudomonas aeruginosa [27]): > 64 µg/mL
MIC (Staphylococcus aureus [16]): > 64 µg/mL
MIC (Pseudomonas aeruginosa [18]): > 64 µg/mL
MIC (Pseudomonas aeruginosa [28]): > 64 µg/mL

CC(C)CCCCC(=O)N[C@@H](CCN)C(=O)N[C@H](C(=O)N[C@@H](CCN)C(=O)N[C@H]1CCNC(=O)[C@H]([C@@H](C)O)NC(=O)[C@H](CCN)NC(=O)[C@H](CCN)NC(=O)[C@H](CC(C)C)NC(=O)[C@@H](Cc2ccccc2)NC(=O)[C@H](CCN)NC1=O)[C@@H](C)O.CC[C@H](C)CCCCC(=O)N[C@@H](CCN)C(=O)N[C@H](C(=O)N[C@@H](CCN)C(=O)N[C@H]1CCNC(=O)[C@H]([C@@H](C)O)NC(=O)[C@H](CCN)NC(=O)[C@H](CCN)NC(=O)[C@H](CC(C)C)NC(=O)[C@@H](Cc2ccccc2)NC(=O)[C@H](CCN)NC1=O)[C@@H](C)O (X1-[Dab]T[Dab][Dab][Dab][dF]L[Dab][Dab]T; lactam 4-C)
MIC (Pseudomonas aeruginosa [20]): 0.5 µg/mL
MIC (Pseudomonas aeruginosa [29]): 2 µg/mL
MIC (Pseudomonas aeruginosa [1]): > 64 µg/mL
MIC (Klebsiella pneumoniae [21]): 0.5 µg/mL
MIC (Escherichia coli [30]): 0.2 µg/mL
MIC (Staphylococcus aureus [2]): 16 µg/mL
MIC (Pseudomonas aeruginosa [4]): 1 µg/mL
MIC (Pseudomonas aeruginosa [31]): 2 µg/mL
MIC (Klebsiella pneumoniae [22]): 1 µg/mL
MIC (Enterobacter cloacae [6]): 1 µg/mL
MIC (Klebsiella pneumoniae [23]): 1 µg/mL
MIC (Pseudomonas aeruginosa [32]): 1 µg/mL
MIC (Acinetobacter baumannii [33]): 0.5 µg/mL
MIC (Pseudomonas aeruginosa [7]): 4 µg/mL
MIC (Pseudomonas aeruginosa [24]): 16 µg/mL
MIC (Enterobacter cloacae [25]): 2 µg/mL
MIC (Acinetobacter baumannii [34]): 0.25 µg/mL
MIC (Escherichia coli [13]): 0.25 µg/mL
MIC (Pseudomonas aeruginosa [35]): 1 µg/mL
MIC (Klebsiella pneumoniae [26]): 1 µg/mL
MIC (Pseudomonas aeruginosa [27]): 2 µg/mL
MIC (Pseudomonas aeruginosa [36]): 8 µg/mL
MIC (Staphylococcus aureus [16]): > 16 µg/mL
MIC (Pseudomonas aeruginosa [37]): 1 µg/mL
MIC (Pseudomonas aeruginosa [18]): > 0.5 µg/mL
MIC (Pseudomonas aeruginosa [28]): 2 µg/mL
